Usually EC50 stands for the midpoint of the concentration-response curve. A lower EC50 goes with a more potent agent.

The test system of the experiment is Primary adult CD34+ human hematopoietic stem cells (HSCs). Briefly: % CD34+ assay: HSC expansion screen, dose response. It counts as cell-based. To be noted: Homo sapiens, Hematopoietic stem cell; dose response 1 nM to 10 μM; total number and/or percent of CD34+ cells. The method, then:
Primary adult CD34^+ human hematopoietic stem cells (HSCs) are cultured and screened to identify compounds of the invention that facilitate HSC expansion. The cells are analyzed for the presence of the desired phenotype (CD34 expression). Compounds of the invention promote HSC expansion in a dose dependent manner.
Culture Medium: StemSpan SFEM medium is serum-free medium (StemCell Technologies, Vancouver, BC) supplemented with the following human recombinant cytokines: thrombopoietin, interleukin-6, Flt-3 ligand, and stem cell factor (all from R&D Systems, Minneapolis, Minn.), each at a final concentration of 50 ng/mL, with vehicle (DMSO) or a compound of the invention.
Human Cell Culture: Fresh human leukophoresed G-CSF mobilized peripheral blood from normal donors, CD34^+ cells from adult bone marrow and cryopreserved human cord blood CD34^+ cells are purchased from AllCells (Berkeley, Calif.). Human CD34^+ cells are enriched from leukophoresed G-CSF mobilized peripheral blood using magnetic cell sorting (MACS, Direct CD34 Progenitor Cell Isolation Kit, Miltenyi Biotec, Bergisch Gladbach, Germany) and cryopreserved. CD34^+ cell purity, checked by flow Cytometry, is higher than 90%. After thawing, the cell viability tested by trypan blue exclusion is higher than 70%. The thawed cells are centrifuged and resuspended with StemSpan medium before being aliquoted for immediate culture. Cells are plated at 10^4 cells/mL in a 384 well plate (Greiner Bio-One, Monroe, N.C.) with 50 μL of medium per well for 7 days. Every 7 days the cells are transferred to larger well plates and fresh medium is added to keep the cell density between 10^4 and 5×10^5 cells/mL. Cells were cultured at 37° C. in 5% CO2. For transplantation, cells were cultured in 75 cm^2 flasks before the cells were transplanted into mice. At a concentration of 1 micromolar, 4-(2-(2-(benzo[b]thiophen-3-yl)-9-isopropyl-9H-purin-6-ylamino)ethyl)phenol (compound 1, table 1; example 1), 4-(2-(2-(benzo[b]thiophen-3-yl)-9-sec-butyl-9H-purin-6-ylamino)ethyl)phenol (compound 2, table 1), and N-(2-(1H-indol-3-yl)ethyl)-2-(benzo[b]thiophen-3-yl)-9-isopropyl-9H-purin-6-amine (compound 9, table 1) each gives rise to a greater than 10-fold increase in the number of CD34^+ CD45RA^− cells derived from 1000 mPB CD34^+ HSCs after 21 days compared to vehicle. Compounds of the invention were assayed in a dose response format (1 nM to 10 μM) to determine the effective concentration that produced the desired effect in 50% of the cells (EC50).
As for `CC(C)n1cnc2c(NCCc3ccc(O)cc3)nc(-c3ccnnc3)nc21` [Example 42], the EC50 is 640 nM. Compound `CC(C)n1cnc2c(NCCc3c[nH]c4cccc(F)c34)nc(-c3cncc(F)c3)nc21` [Example 195] gave an EC50 of 3 nM. Next, `CC(C)n1cnc2c(NCCc3ccc(O)cc3)nc(-c3cncc(F)c3)cc21` [Example 161, 4-(2-(6-(5-Fluoropyridin-3-yl)-1-isopropyl-1H-imidazo[4,5-c]pyridin-4-ylamino)ethyl)phenol]: 170 nM. The same measure for `CC(C)n1cnc2c(NCCc3n[nH]c4ccccc34)nc(-c3cccnc3)nc21` [Example 98]: 8200 nM; for `CC(C)n1cnc2c(NCCc3ccc(O)cc3)nc(-c3cccs3)nc21` [Example 55]: 1300 nM; for `Oc1ccc(CCNc2nc(-c3csc4ccccc34)nc3c2ncn3C(c2ccccc2)c2ccccc2)cc1` [Example 3]: 150 nM. Regarding `CC(C)n1cnc2c(NCCNc3ccccn3)nc(-c3cccnc3)nc21` [Example 72], the EC50 stood at 6300 nM. For the compound `Oc1ccc(CCNc2nc(-c3cncc(F)c3)nc3c2ncn3C2COC2)cc1` [Example 127], the EC50 was found to be 470 nM.

As to `CC(C)n1cnc2c(NCCc3c[nH]c4ncccc34)nc(-c3cncc(F)c3)nc21` [Example 175], the EC50 worked out at 420 nM. Compound `CC(C)n1cnc2c(NCCc3c[nH]c4ccccc34)nc(-c3cncc(F)c3)nc21` [Example 170] came in with an EC50 of 6 nM. Next, `CC(C)n1cnc2c(NCCc3ccc(O)cc3)nc(-c3cncc(C#N)c3)nc21` [Example 37]: 24 nM. Next, `CC(C)n1cnc2c(NCCc3ccc(O)cc3)nc(-c3cnccc3C#N)nc21` [Example 140]: 91 nM.

Take `CC(C)n1cnc2c(NCCc3c[nH]c4ccccc34)nc(-c3csc4ccccc34)nc21` [Example 9, N-(2-(1H-indol-3-yl)ethyl)-2-(benzo[b]thiophen-3-yl)-9-isopropyl-9H-purin-6-amine]: the EC50 was determined as 20 nM.

Take `Oc1ccc(CCNc2nc(-c3csc4ccccc34)nc3c2ncn3Cc2ccc(C(F)(F)F)cc2)cc1` [Example 5]: it took 2080 nM to reach a half-maximal effect (EC50).

The compound `CCCCCCCC(C)n1cnc2c(NCCc3ccc(O)cc3)nc(-c3csc4ccccc34)nc21` (stereo not drawn) [Example 21] gave an EC50 of 130 nM. `CC(C)n1cnc2c(NCCc3ccc(O)cc3)nc(-n3ccnc3)nc21` [Example 40] displayed a half-maximal effective concentration (EC50) of 260 nM.

The compound `CC(C)n1cnc2c(NCCc3ccc(O)cc3)nc(N3CCCC3)nc21` [Example 38] returned an EC50 of 1600 nM. Compound `CC(C)n1cnc2c(NCCc3ccc(O)cc3)cc(-c3cncc(F)c3)nc21` [Example 177, 4-(2-(5-(5-Fluoropyridin-3-yl)-3-isopropyl-3H-imidazo[4,5-b]pyridin-7-ylamino)ethyl)phenol] gave an EC50 of 140 nM. The same measure for `CC(C)n1cnc2c(NCCc3ccc(O)cc3)nc(-n3cnc4ncccc43)nc21` [Example 160]: 1900 nM; for `Cc1ccc2c(CCNc3nc(-c4cncc(F)c4)nc4c3ncn4C(C)C)c[nH]c2c1` [Example 189]: 26 nM. The same measure for `Cc1ccc(Cn2cnc3c(NCCc4ccc(O)cc4)nc(-c4csc5ccccc45)nc32)cc1` [Example 8]: 6030 nM; for `CCCc1nccn1-c1nc(NCCc2ccc(O)cc2)c2ncn(C(C)C)c2n1` [Example 181]: 2500 nM; for `Cc1ncn(-c2nc(NCCc3ccc(O)cc3)c3ncn(C(C)C)c3n2)c1C` [Example 162]: 140 nM. The same measure for `CC(C)n1cnc2c(NCCc3cnc4[nH]ccc4c3)nc(-c3cccnc3)nc21` [Example 199]: 1600 nM; for `Oc1ccc(CCNc2nc(-c3csc4ccccc34)nc3c2ncn3C2CCCOC2)cc1` (stereo not drawn) [Example 4]: 1490 nM; for `CC(C)n1cnc2c(NCCCc3cn[nH]c3)nc(-c3cccnc3)nc21` [Example 73]: 8200 nM. `CC(C)n1cnc2c(NCCc3ccc(F)cc3)nc(-c3csc4ccccc34)nc21` [Example 12]: the EC50 is 1760 nM. This EC50 lies about 4.7-fold lower than the previous one. Compound `CC(C)n1cnc2c(NCCc3n[nH]c(N)n3)nc(-c3csc4ccccc34)nc21` [Example 82] gave an EC50 of 7900 nM. This EC50 is about 4.5-fold higher than that of the compound before. The same measure for `CC(C)n1cnc2c(NCCc3ccc(O)cc3)nc(-c3ccccc3)nc21` [Example 16]: 460 nM. Next, `CC(C)n1cnc2c(NCCc3ccc(O)cc3)nc(-c3ccsc3)nc21` [Example 17]: 970 nM.

As for `Fc1ccc(CCNc2nc(-c3csc4ccccc34)nc3c2ncn3-c2ccccc2)cc1` [Example 19], the EC50 was 1100 nM. The same measure for `CC(C)n1cnc2c(N(C)CCc3ccc(O)cc3)nc(-c3cccnc3)nc21` [Example 99]: 7500 nM; for `COc1ccc2[nH]cc(CCNc3nc(-c4cncc(F)c4)nc4c3ncn4C(C)C)c2c1` [Example 172]: 420 nM. The same measure for `CCC(C)n1cnc2c(NCCc3ccc(O)cc3)nc(-c3csc4ccccc34)nc21` (stereo not drawn) [Example 2, 4-(2-(2-(benzo[b]thiophen-3-yl)-9-sec-butyl-9H-purin-6-ylamino)ethyl)phenol]: 30 nM. Compound `CC(C)n1cnc2c(NCCc3cccc(O)c3)nc(-c3csc4ccccc34)nc21` [Example 11] gave an EC50 of 1450 nM.

In the case of `CC(C)n1cnc2c(NCCc3ccc(O)cc3)nc(-c3cncc(S(C)(=O)=O)c3)nc21` [Example 46], the EC50 amounted to 650 nM. This EC50 lies about 2.2-fold lower than the previous one. Take `CC(C)n1cnc2c(NCCc3ccc(O)cc3)nc(-c3cncc4ccccc34)nc21` [Example 145]: a half-maximal response (EC50) required 5400 nM. In turn, `C[C@@H](CO)n1cnc2c(NCCc3c[nH]c4ccccc34)nc(-c3cncc(F)c3)nc21` [Example 157S, (S)-2-(6-(2-(1H-indol-3-yl)ethylamino)-2-(5-fluoropyridin-3-yl)-9H-purin-9-yl)propan-1-ol] had an EC50 of 3 nM. The same measure for `CC(C)n1cnc2c(NCCc3c[nH]c4cc(O)ccc34)nc(-c3cncc(F)c3)nc21` [Example 182]: 5100 nM; for `CC(C)n1cnc2c(NCCc3ccc(O)cc3)nc(-c3cncc(Cl)c3)nc21` [Example 128, 4-(2-(2-(5-Chloropyridin-3-yl)-9-isopropyl-9H-purin-6-ylamino)ethyl)phenol]: 19 nM; for `CC(C)n1cnc2c(NCCc3c[nH]c4ccccc34)nc(-c3cccnc3)nc21` [Example 91]: 29 nM. With `Cc1cc(O)ccc1CCNc1nc(-c2cccnc2)nc2c1ncn2C(C)C` [Example 138], the midpoint of the response, the EC50, lay at 400 nM.

`CC(C)n1cnc2c(NCCc3ccc(O)cc3)nc(-c3ccc(C#N)nc3)nc21` [Example 139]: the EC50 amounted to 1300 nM. Next, `CC(C)n1cnc2c(NCCc3ccc(NS(C)(=O)=O)cc3)nc(-c3cccnc3)nc21` [Example 92]: 7100 nM. Take `Cc1cccc2c(CCNc3nc(-c4cncc(F)c4)nc4c3ncn4C(C)C)c[nH]c12` [Example 185]: the EC50 worked out at 24 nM.

Regarding `Oc1ccc(CCNc2nc(-c3csc4ccccc34)nc3c2ncn3[C@@H]2CCOC2)cc1` [Example 153, (R)-4-(2-(2-(benzo[b]thiophen-3-yl)-9-(tetrahydrofuran-3-yl)-9H-purin-6-ylamino)ethyl)phenol], a half-maximal effect (EC50) was put at 220 nM. The same measure for `Fc1cncc(-c2nc(NCCc3c[nH]c4ccccc34)c3ncn([C@@H]4CCOC4)c3n2)c1` [Example 158]: 12 nM; for `Cc1cncc(-c2nc(NCCc3c[nH]c4ccccc34)c3ncn(C4COC4)c3n2)c1` [Example 187]: 34 nM. For `CC[C@H](C)n1cnc2c(NCCc3c[nH]c4ccccc34)nc(-c3cncc(C)c3)nc21` [Example 131S], the midpoint of the response, the EC50, lay at 3 nM. The same measure for `CC(CO)n1cnc2c(NCCc3ccc(O)cc3)nc(-c3cccnc3)nc21` (stereo not drawn) [Example 113]: 540 nM.

In turn, `CC(C)n1c(-c2ccc(-c3ccccc3)cc2)nc2c(NCc3ccccc3)ncnc21` [Example 20] had an EC50 of 7800 nM. Against the preceding compound, the EC50 is about 14-fold higher.

The compound `Cc1ccc2[nH]cc(CCNc3nc(-c4cccnc4)nc4c3ncn4C(C)C)c2c1` [Example 62] yielded a 50% effective concentration (EC50) of 720 nM.

In turn, `CC(C)n1cnc2c(NCCc3ccsc3)nc(-c3csc4ccccc34)nc21` [Example 10] returned a half-maximal effective concentration (EC50) of 1380 nM. Compared with the last compound, the EC50 is about 1.9-fold higher. The same measure for `CC(C)Cn1cnc2c(NCCc3ccc(O)cc3)nc(-c3csc4ccccc34)nc21` [Example 6]: 2530 nM; for `CC(C)n1cnc2c(NCCc3ccc(O)c(Cl)c3)nc(-c3cccnc3)nc21` [Example 146]: 240 nM; for `Cc1nccn1-c1nc(NCCc2c[nH]c3ccccc23)c2ncn(C(C)C)c2n1` [Example 184]: 8 nM. The same measure for `CCc1nccn1-c1nc(NCCc2ccc(O)cc2)c2ncn(C(C)C)c2n1` [Example 180]: 130 nM.

(Values after patent US9580426B2, “Compounds that expand hematopoietic stem cells” (Novartis AG, priority 2008, dated 2017).)
